Test results: publication PMC12590273, “Systematic design of DMBT1-derived peptides correlating physicochemical properties and sequence motifs with siRNA delivery and efficacy in cancer therapy” (eBioMedicine, 2025)
Non-standard residues stand in square brackets, D forms with d. Residues, ends and D or L forms follow the SMILES beside them.

Assays:
[1] = tested on: siRNA (Stealth RNAi Negative Control siRNA); experiment: Electrophoretic mobility shift assay (EMSA), peptide-siRNA binding/encapsulation; conditions: peptides 10–100 μM mixed with siRNA at 1:10–1:100 molar ratios in RNase-free water, 30 min 37 °C or 1 h 50 °C; 4% agarose gel, MOPS pH 7.5, GelRed
Description: Peptides (10–100 μM) were mixed with siRNA at 1:10–1:100 molar ratios in RNase-free water and incubated 30 min at 37 °C (or 1 h at 50 °C for low-binding peptides). Complexes, supplemented with 5% glycerol, were run on 4% agarose gels in MOPS buffer (pH 7.5) at 70 V for 30 min, stained with GelRed, and imaged under UV. FastRuler UltraLow served as the size marker.

[2] = tested on: A375 and MCF7 cells; experiment: Cell internalisation of DCPP/Alexa Fluor 555 siRNA complexes (statements not split by cell line); format: cell-based; conditions: Alexa Fluor 555 siRNA 25–100 nM, 24 h, fluorescence normalised to crystal violet; cell line not stated
Description: A375 (RRID: CVCL_0132) and MCF7 cells (RRID: CVCL_0031) were obtained from ATCC. MEL-STV cells (here called MelST, RRID: CVCL_9U71) are immortalised human melanocytes generated by introducing SV40 large T antigen and hTERT. They are non-tumorigenic and were kindly provided by Dr. Robert Allan Weinberg (Whitehead Institute, MIT). All cell lines were cultured in DMEM + GlutaMax™ with 5% FBS at 37 °C/5% CO2. Working solutions of Alexa Fluor 555 siRNA were prepared in UltraPure DNase/RNase-Free Distilled Water at concentrations of 100–400 nM, and peptide solutions were prepared to achieve the desired peptide–siRNA binding molar ratios, selected based on the siRNA binding efficiency of each peptide. siRNA was mixed with its respective peptide solution and incubated for 30 min at 37 °C or 1 h at 50 °C, depending on the peptide. After incubation, the complexes were diluted in OptiMEM and added to the wells at 50 μL per well, with final siRNA concentrations ranging from 25 to 100 nM. […] OptiMEM without phenol red was added, and fluorescence was measured using Alexa Fluor 555 (excitation/emission: 553/568 nm, reading: 535/595 nm). Cells were subsequently stained with crystal violet and resuspended in citrate buffer, and absorbance was measured. Crystal violet absorbance was used to normalise the fluorescence signal, accounting for cell density or viability differences.

[3] = tested on: GAPDH in A375 cells; experiment: GAPDH silencing by DCPP/GAPDH-siRNA complexes (KDalert kit); format: cell-based, human; conditions: 2.5% FBS, 48 h, three biological replicates
Description: GAPDH silencing: DCPP/GAPDH-siRNA complexes were prepared as above, diluted in OptiMEM, and added (50 μL) to 96-well plates. A375 and MCF7 cells (2 × 10^3 cells/well) in 50 μL OptiMEM + 5% FBS + 1% P/S were plated onto the complexes (final 100 μL, 2.5% FBS). After 48 h, GAPDH knock-down was measured with the KDalert™ kit.

| Compound | siRNA binding / encapsulation (peptide-siRNA binding molar ratio by EMSA) [1] | shape of dose–response curve of cell interaction [2] | GAPDH silencing in A375 cells [3] |
| --- | --- | --- | --- |
| CC(=O)N[C@@H](CCCCN)C(=O)N1CCC[C@H]1C(=O)N[C@@H](CO)C(=O)N[C@@H](CO)C(=O)N1CCC[C@H]1C(=O)N1CCC[C@H]1C(=O)N[C@@H](CCC(=O)O)C(=O)N[C@@H](CCC(=O)O)C(=O)NCC(=O)N[C@H](CCCNC(=N)N)C(=O)N[C@H](C(=O)N[C@@H](CCC(=O)O)C(=O)N[C@H](C(=O)N[C@@H](CC(C)C)C(=O)N[C@@H](Cc1c[nH]cn1)C(=O)N[C@@H](Cc1c[nH]cn1)C(=O)N[C@@H](Cc1c[nH]cn1)C(=O)N[C@@H](Cc1c[nH]cn1)C(=O)N[C@H](Cc1c[nH]c2ccccc12)C(=O)N[C@@H](CCCNC(=N)N)C(=O)N[C@@H](CCCNC(=N)N)C(=O)N[C@@H](CCCNC(=N)N)C(=O)N[C@@H](CCCNC(=N)N)C(=O)N[C@H](Cc1c[nH]c2ccccc12)C(N)=O)C(C)C)C(C)C [A6DH, Ac-KPSSPPEEGrVEVLHHHHwRRRRw-NH2] (Ac-KPSSPPEEG[dR]VEVLHHHH[dW]RRRR[dW]-NH2) | no detectable siRNA binding |  |  |
| Ac-GRVEVLRRRRWKPSSPPEEHH-NH2 [D4RA6H, CD44-targeting DMBT1-derived peptide containing the A6 motif] | no detectable siRNA binding |  |  |
| SREPRGD | efficiently bound siRNA | sigmoid curve with a plateau | significant gene silencing |
| SREPRGDK | efficiently bound siRNA |  |  |
